According to patent publication US5798375A, “Treatment of arteriosclerosis and xanthoma” (Sankyo Company, Limited, priority 1995, dated 1998):

Key:
[1] = tested on: Male New Zealand white rabbits; assay: Example 3: regression of established atherosclerotic lesions in the cholesterol-fed rabbit model; assay type: in vivo; conditions: for Rate of lesion area, against the control group: figure in parentheses; for Rate of lesion area: thoracic aorta, two months, mean ± standard error, control 29 ± 20
Protocol: The rabbits were grouped randomly (3-9 animals per group) and the test samples were administered orally for two months, while they were fed with a normolipidaemic diet. […] The results are shown in terms of the percentage of lesion area in the thoracic aorta.

Male Fl b hamsters = assay: Example 4: regression of preformed atherosclerosis in hamsters (Oil Red O stained area); assay type: in vivo
Protocol: Synergism of HMG CoA reductase inhibitors and thiazolidinedione insulin sensitizers was examined by another regression model, i.e. the regression of preformed atherosclerosis in hamsters. Male Fl b hamsters (weight about 130 g,) were given a diet containing 0.05% cholesterol for 13 weeks. They were grouped randomly (2-7 animals per group), and then the test samples were administered for 4 weeks while the hamsters were given a normolipidaemic diet. Pravastatin and fluvastatin were mixed with drinking water at the dose of 3 mg/kg and 1.5 mg/kg, respectively, while troglitazone was mixed with the diet at the dose of 30 mg/kg or 100 mg/kg.
In the case of the combination groups, the dosage was 3 mg/kg+30 mg/kg or 3 mg/kg+100 mg/kg for the pravastatin+troglitazone group, and 1.5 mg/kg+30 mg/kg for the fluvastatin+troglitazone group.
Namely, the aortic arch was stained with ORO to prepare en face specimens. The percentage area which was positive to the ORO stain over the whole area was measured to represent the degree of aortic lesion.

**Q.** Which “Rate of lesion area, against the control group” value ([1]; 0.08 mg/kg (as printed in Table 9)) does the source give for `CC(C)n1c(/C=C/C(O)CC(O)CC(=O)O)c(-c2ccc(F)cc2)c2ccccc21` (stereo not shown) [Fluvastatin] here?
**A.** 93

**Q.** What about the “Rate of lesion area, against the control group” value ([1]; 1.5 mg/kg) of the same molecule?
**A.** 134

**Q.** And the “Rate of lesion area” value ([1]; 0.08 mg/kg (as printed in Table 9) oral)?
**A.** 27 ± 9%

**Q.** What about the “Rate of lesion area” value ([1]; 1.5 mg/kg oral) of the same molecule?
**A.** 39 ± 16%

**Q.** What about the “Stained Area, % of Control” value (Male Fl b hamsters; 1.5 mg/kg) of the same molecule?
**A.** 96%

**Q.** What about the “Stained Area ORO” value (Male Fl b hamsters; aortic arch, 1.5 mg/kg in drinking water, 4 weeks, control 1.82 ± 0.44) of the same molecule?
**A.** 1.74 ± 0.49%

**Q.** And the “regression of aortic lesions” value (Male Fl b hamsters; pravastatin 3 mg/kg, fluvastatin 1.5 mg/kg, troglitazone 30 mg/kg alone, combinations)?
**A.** no regression of aortic lesions
